Measured values published in publication PMC5054363 (Scientific Reports, 2016).
Entries after “also recorded” stand apart in the source; their conditions may differ. *1 amine or outer side, *2 acyl side, *3 side chain or, on linkers, in order; H or OH if unused. Where a SMILES comes first, the peptide text is derived from it. Bridges are numbered along the chain shown (N, C = ends). [ ]: non-standard residue; d: D form. The star is where a group is joined. X1 = CC[C@H](C)[C@@H](N[*:1])[C@@H](O)CC(=O)O[C@H](C(=O)[C@H](C)C(=O)[*:2])C(C)C; NMeY = CN[C@@H](Cc1ccc(O)cc1)C(=O)O; dNMeL = CN[C@H](CC(C)C)C(=O)O; Pyruvoyl = CC(=O)C(=O)*

What was measured:
[1] = tested on: NCI-H460 non-small cell lung cancer cells; assay: Cell growth inhibition (MTT, 72 h), NCI-H460; type: cell-based; settings: parental NCI-H460, 72 h
Method: HeLa cervix adenocarcinoma (ATCC CCL-2), K-562 chronic myelogenous leukemia (ATCC CCL-243), NCI-H460 lung cancer (ATCC HTB-177) and HGC27 gastric cancer (ATCC CRL-2506) cells were obtained from ATCC (Manassas, VA, USA) and cultured following standard procedures. Viability assays were performed utilizing 3-(4,5-dimethylthiazol-2-yl)-2,5-diphenyltetrazolium bromide (MTT) according to methods described elsewhere[46].

[2] = tested on: HGC27-APL-R gastric carcinoma cells (plitidepsin-resistant); assay: Cell growth inhibition (MTT, 72 h), HGC27-APL-R; type: cell-based; settings: highest concentration tested 100 nM
[3] = tested on: HeLa-APL-R cells stably transfected with eEF1A2-GFP; assay: Antiproliferative activity in HeLa-APL-R stably transfected with eEF1A2-GFP; type: cell-based, human; settings: 72 h, MTT
Method: (§1) (A) HeLa and HeLa-APL-R cells were stably transfected with an expression vector encoding for eEF1A2-GFP fusion protein. Clones homogeneously expressing the GFP were selected. The levels of expression of eEF1A2 were analyzed by Western blot using specific antibodies. The position of the endogenous and the GFP-fusion proteins are indicated. […] Levels of expression attained after transfection were similar to the endogenous levels. […] Concentration-response curves were performed at 72 h. Cell growth was determined by the MTT method and expressed as percentage of control cell survival.
(§2) For transfection and selection of cell clones, HeLa and HeLa-APL-R cells were seeded in 24 well plates at 40% confluence and allowed to stand for 24 hours at 37 °C and 5% CO2. Before transfection, the culture medium was changed to Opti-MEM (Life Technologies, Carlsbad, CA, USA). Plasmids encoding eEF1A2-GFP were incubated with Lipofectamine (Life Technologies, Carlsbad, CA, USA) under the recommendations of the manufacturer and added to the cell medium. After 24 h incubation at 37 °C and 5% CO2, the culture medium was replaced by the standard DMEM supplemented with 2 mg/ml of G-418 for the selection of clones expressing the exogenous gene. Clones were further selected following the expression of the GFP-fused protein through fluorescence microscopy.

[4] = tested on: HeLa cells ectopically overexpressing eEF1A2-GFP; assay: Antiproliferative activity in HeLa overexpressing eEF1A2-GFP; type: cell-based, human; settings: HeLa overexpressing eEF1A2-GFP (Supplementary Figure 1)
Method: as §2
LEGENDS TO SUPPL EMENTARY FI GURES
HeLa and HeLa-APL -R cells.
autofluorescence AF (grey).
GFP at different concentrations identified in the phasor plot.
Supplementary Figure 3. FRET efficiency estimation from FRET “Dn” and FRET
of incubation with 10 nM plitidepsin- DMAC. Clusters of phasors corresponding to the […]

[5] = tested on: three tumor cell lines selected for resistance to plitidepsin
Method: In all cases eEF1A2 protein levels were analyzed by Western Blot as shown in the right hand side of each graph. ● wild type cells, ○ APL-R cells.
HeLa cervix adenocarcinoma (ATCC CCL-2), K-562 chronic myelogenous leukemia (ATCC CCL-243), NCI-H460 lung cancer (ATCC HTB-177) and HGC27 gastric cancer (ATCC CRL-2506) cells were obtained from ATCC (Manassas, VA, USA) and cultured following standard procedures. Viability assays were performed utilizing 3-(4,5-dimethylthiazol-2-yl)-2,5-diphenyltetrazolium bromide (MTT) according to methods described elsewhere.

[6] = tested on: p38, ERK and JNK phosphorylation in HeLa-APL-R cells expressing eEF1A2-GFP; assay: Signaling (Western blot) in HeLa-APL-R expressing eEF1A2-GFP; type: cell-based, human; settings: plitidepsin 450 nM
Method: as §1, §2

[7] = tested on: subcellular and chromatographic fractions of K-562 cell lysate; assay: Binding of [14C]-plitidepsin to K-562 lysate fractions
Method: Figure 4 Identification of the plitidepsin-binding protein in a K-562 cells lysate. […] In the horizontal axis “P” and “S” mean “pellet” and “supernatant”, respectively, with the figure aside denoting the relative centrifugal force (in thousands of g) used to obtain such fraction. Data (in dpm per mg of protein) represent the mean of three independent samples with error bars showing S.D. * means p < 0.05. (C) Anion-exchange chromatography on DEAE, flow rate 5 mL/min. (D) Cation-exchange chromatography on SP, flow rate 2.5 mL/min. (E) Size exclusion chromatography on Superdex 200, flow rate 4 mL/min. Representative fractions (4-mL) from each portion of the eluates were analyzed for their binding to [^14C]-plitidepsin in the presence (grey bars, non-specific binding) or absence (black bars, total binding) of a 20-fold excess of unlabeled drug. Only fractions showing significant specific binding to the radioligand were pooled and progressed to the next chromatographic step. In all cases absorbance is expressed in mAU and conductivity in mS/cm.
The rest of the peptides detected in this material corresponded to fragments whose sequences are common to both isoforms, thus discarding the presence of any other protein.
After 1 h incubation at room temperature 400 μL of each tube were withdrawn and processed as described above.

eEF1A2 = assay: GDP/GTP exchange in eEF1A2; type: biochemical; settings: with EF1B, data not shown
[8] = tested on: sphingosine kinase-1 (SK1); assay: Sphingosine kinase-1 activity in tumor cells; type: cell-based; settings: preliminary, data not shown
multiple myeloma cells = settings: cited from earlier work
From the text: For example, it is known that eEF1A is able to directly increase the activity of sphingosine kinase-1 (SK1), an effect that is related to oncogenesis. […] The hijacking of eEF1A with the consequent reduction of SK1 activity has already been describe ...

[9] = two different COMPARE analyses, no reference given; cited from earlier work
From the text: (§3) Plitidepsin (Aplidin) is a cyclic depsipeptide originally isolated from the marine tunicate Aplidium albicans. […] Plitidpesin has recently completed a pivotal phase III clinical trial for multiple myeloma (clinicaltrials.gov identifier: NCT01102426) that has shown a statistically significant 35% reduction in the risk of progression or death over the comparator (p = 0.0054). This study has met its primary endpoint. In tumor cells, the compound induces a potent oxidative stres ...

[10] = tested on: JNK and p38 MAPK, oxidative stress in tumor cells; settings: cited from earlier work
From the text: as §3

[11] = tested on: multiple myeloma patients; settings: phase III, p = 0.0054, ref clinicaltrials.gov NCT01102426; cited from earlier work
From the text: as §3

CC[C@H](C)[C@H]1NC(=O)[C@@H](NC(=O)[C@@H](CC(C)C)N(C)C(=O)[C@@H]2CCCN2C(=O)C(C)=O)[C@@H](C)OC(=O)[C@H](Cc2ccc(OC)cc2)N(C)C(=O)[C@@H]2CCCN2C(=O)[C@H](CC(C)C)NC(=O)[C@@H](C)C(=O)[C@H](C(C)C)OC(=O)C[C@@H]1O [plitidepsin, Plitidepsin] (Pyruvoyl-P[dNMeL]T[X1]LP[NMeY](Me); ester 3-C (inferred))
IC50 [1]: 200 pM | effect on cell growth [2]: did not cause any effect on cell growth | sensitivity to plitidepsin after ectopic expression of eEF1A2 [3]: partially recovered sensitivity; also recorded: restored the sensitivity | additional sensitization to the drug [4]: did not show any additional sensitization | fold resistance to plitidepsin versus parental cells [5]: at least 100 fold | phosphorylation of p38, ERK and JNK [6]: led to phosphorylation of p38, ERK and JNK | proteins detected as capable of binding plitidepsin ([7]; K-562 lysate, MALDI-TOF/TOF identification): both isoforms of eEF1A are the only proteins | specific binding by size-exclusion peaks ([7]; Superdex 200 peaks, fourth peak eluting at 80 min, ca. 50 kDa): only the fourth one | effect on GDP/GTP exchange in eEF1A2 (eEF1A2): very modest | SK1 activity in tumor cells [8]: decrease the activity of this enzyme in tumor cells | combination effect with bortezomib (multiple myeloma cells; with bortezomib): synergistic | combination effect with lenalidomide (multiple myeloma cells; with lenalidomide): synergistic | combination effect with thalidomide (multiple myeloma cells; with thalidomide): synergistic | similarity with other antitumor agents [9]: no similarity with any other antitumor agent | activation of JNK and p38 [10]: rapid and sustained activation | oxidative stress [10]: potent oxidative stress | reduction in the risk of progression or death over the comparator [11]: 35%
